This note sets out measurements from patent publication EP0996429B1, “SOLID STATE SOLUTIONS AND DISPERSIONS OF POORLY WATER SOLUBLE DRUGS” (MERCK PATENT GmbH, priority 1997, dated 1999).

Structures are written as SMILES.

The nature of data set [1]: Intrinsic dissolution of phenytoin and HydroSolve-phenytoin in DI water (paddle method, absorbance 220 nm). The data set is classed as physicochemical. The settings on record: 900 ml D1 water, Paddle Method 50 rpm. Here is the method:
b. Procedures: • 1. Melt Gelucire and Pluronic together. • 2. Dissolve the phenytoin into above solution. • 3. Congeal this suspension and pass through #20 mesh. • 4. Measure about 32 and 110 mg of phenytoin and HydroSolve - phenytoin, respectively. • 5. Measure the dissolution profiles using 900 ml of D1 water and Paddle Method at 50 rpm. • 6. Using D1 water as blank, measure the absorbance at 220 nm of each sample which is filtered through 0.45 micron filters. • 7. Calculate the percent released by standard curve: Absorbance = 0.4072 x Concentration (mg/100ml) + 0.0227 [formula] c.

A short description of data set [2]: Intrinsic dissolution of ibuprofen and HydroSolve-Ibuprofen in pH 7.2 buffer (paddle, absorbance 221 nm). The data set is classed as physicochemical. Particulars: 700 ml pH 7.2 buffer, paddle 50 rpm. Here is the method: b. Procedures: • 1.Melt Gelucire and Pluronic, and dissolve ibuprofen into the mixture. • 2.Add the above solution into Sorbitol Instant while stirring. • 3.Cool down and pass through #20 mesh screen. c. Dissolution Test Using the Dissolution Test as follows: • 1.Measure 3.3 mg and 17.2 mg of ibuprofen (20 micron) and HydroSolve - Ibuprofen, respectively. • 2.Measure the dissolution profiles using 700 ml of pH 7.2 buffer and paddle at 50 rpm. • 3.Measure the absorbance at 221 nm.

For the compound `O=C1NC(=O)C(c2ccccc2)(c2ccccc2)N1` [Phenytoin], the “% Dissolved (%)” value in data set [1] (Time 0.5 h) is given as 3.03%; in data set [1] (Time 1 h), 5.92%; in data set [1] (Time 2 h) it was 14.42%; in data set [1] (Time 3 h), 20.58%.
On to `CC(C)Cc1ccc(C(C)C(=O)O)cc1` (stereo not shown) [Ibuprofen], for which the “Dissolution profile (Results)” value worked out at 75.93 in data set [2] (Time 10 min), 81.14 in data set [2] (Time 20 min) and 81.14 in data set [2] (Time 30 min).
